# Laboratory results reported in patent publication US20140274971A1, “Systems and Methods of Using Chemically Bound Antibiotics Activated by Infections” (Osteoceramics, Inc., priority 2013, published 2014).
# Like-named read-outs stand apart in the source and are kept apart here.
# Tests used:
# [1] = system: Esccherichia coli; experiment: Kirby-Bauer method, tetracycline treated disks, periodontal bacteria; format: cell-based; conditions: disks treated with 0.1 mg/ml, 1 mg/ml and 10 mg/ml; 10^4 to 10^6 levels
# Source text: (§1) Because tooth roots are in an anaerobic environment, bacteria were selected from those commonly encountered in periodontal disease for evaluation by the Kirby-Bauer method. They were ATCCJ177i: Bacillus cereus, Corynebacterium spp., Esccherichia coli, Pasteurella multocida and Staphylococcus spp. Each was doped on Mueller-Hinton agar at 10^4 to 10^6 levels.
# [2] = system: Staphylococcus spp.; experiment: as above; format: cell-based; conditions: disks treated with 0.1 mg/ml, 1 mg/ml and 10 mg/ml; 10^4 to 10^6 levels
# Source text: as §1
# [3] = system: Pasteurella multocida; experiment: as above; format: cell-based; conditions: disks treated with 0.1 mg/ml, 1 mg/ml and 10 mg/ml; 10^4 to 10^6 levels
# Source text: as §1
# [4] = system: Bacillus cereus; experiment: as above; format: cell-based; conditions: disks treated with 0.1 mg/ml, 1 mg/ml and 10 mg/ml; 10^4 to 10^6 levels
# Source text: as §1
# [5] = system: Corynebacterium spp.; experiment: as above; format: cell-based; conditions: disks treated with 0.1 mg/ml, 1 mg/ml and 10 mg/ml; 10^4 to 10^6 levels
# Source text: as §1
# [6] = system: bacterial growth; experiment: Mueller-Hinton agar cultures of concretes made of tetracycline-treated grains; format: cell-based; conditions: concretes of treated grains with gypsum, calcium aluminate or zinc phosphate cement; cured 24 hours
# Description: These were separated into sizes with sieves, to produce a range of size fractions; 12-20 mesh, 20-35 mesh, 35-65 mesh, 65-270 mesh, and minus 325 mesh. […] The tetracycline bonds to the tricalcium component of the grain surfaces. […] So the tricalcium phosphate phase is interconnected throughout the volume and is exposed at 50% of the surface area. […] The surface area was calculated assuming the particles were spheres of the median radius for the sieve fraction. […] The grains changed from white to orange as a result of the treatment. These grains were used to make cements for filling bone voids, combining 65% of one fraction with 15% of the second, finer, fraction in the series, 5% of the −325 mesh fraction and 15% of cement. Different cements were used, including gypsum, calcium aluminate and zinc phosphate cements. These concretes set in 5 to 10 minutes in a wet environment. After curing 24 hours at 100% humidity and 37° C., disks of these concretes were tested in Mueller-Hinton agar cultures to determine if they would inhibit bacterial growth. […] Thus the concrete prostheses have the properties needed to treat bone voids. Note that the size of the coarse fraction 12-20, […] or 35-65 will depend on the maximum particle size that must not exceed the maximum size of the void to be filled.
# [7] = system: selected bacterium; format: cell-based; conditions: for effectiveness of other tetracyclines (in words): other experiments, bound to implant
# Source text: They were rinsed with deionized water and dried. […] The solutions were saved for bioactivity testing.
# [8] = system: staphylococcus aureus; experiment: Repeated Kirby-Bauer test, ciprofloxacin-doped cement (Example 4); format: cell-based
# Source text: A Kirby-Bauer test using staphylococcus aureus was repeated for ciprofloxacin-doped cement with more detail. All specimens, and the paper control, were 6 mm diameter.
# [9] = system: E. Coli
# [10] = system: Pseudo. A.; format: cell-based, Psuedomonus aeruginosa
# Source text: (§2) The setting solution is aqueous calcium chloride.
# [11] = system: Staph. A.; format: cell-based, Staphylococcus aureus
# Source text: as §2
# [12] = 10^−2 gr/gram of calcium aluminate, 1 Day
# [13] = 10^−2 gr/gram of calcium aluminate, 1 Hour
# [14] = 10^−2 gr/gram of calcium aluminate, 1 Week
# [15] = 10^−2 grams ciprofloxacin per gram of calcium aluminate, one week
# [16] = 10^−3 gr/gram of calcium aluminate, 1 Day
# [17] = 10^−3 gr/gram of calcium aluminate, 1 Hour
# [18] = 10^−3 gr/gram of calcium aluminate, 1 Week
# [19] = 10^−4 gr/gram of calcium aluminate, 1 Day
# [20] = 10^−4 gr/gram of calcium aluminate, 1 Week
# [21] = 10^−4 gr/gram of calcium aluminate, 1 Hour
smiles,measurement,setting,value
"CN(C)[C@@H]1C(=O)C(C(N)=O)=C(O)[C@@]2(O)C(=O)C3=C(O)c4c(O)cccc4[C@@](C)(O)[C@H]3C[C@@H]12 [tetracycline, Tetracycline]",bacterial growth adjacent to the disks (in words),[1],prevented
same,bacterial growth adjacent to the disks (in words),[2],prevented
same,bacterial growth adjacent to the disks (in words),[3],prevented
same,bacterial growth adjacent to the disks (in words),[4],prevented
same,bacterial growth adjacent to the disks (in words),[5],prevented
same,inhibition of bacterial growth by concrete disks (in words),[6],perform in the same way as the disks in example one
same,inhibition zones (in words),[7]; disks made with concentrations of 1 and 10 mg/ml,effective in creating large inhibition zones
CN(C)[C@@H]1C(O)=C(C(N)=O)C(=O)[C@@]2(O)C(O)=C3C(=O)c4c(O)cccc4[C@@](C)(O)[C@H]3[C@H](O)[C@@H]12 [oxytetracycline],effectiveness of other tetracyclines (in words),[7],effective
"O=C(O)c1cn(C2CC2)c2cc(N3CCNCC3)c(F)cc2c1=O [ciprofloxacin, Ciprofloxacin]",zone compared with control disk (in words),[8]; 10^−2 g/g concentration,equivalent to the control disk
same,zone compared with control disk (in words),[8]; 10^−3 g/g,somewhat less
same,effect of rinsing the pellet to remove surface antibiotic,[8]; rinsed vs not rinsed,had no effect
same,Kirby-Bauer Inhibition Zone,[9]; [12],37 mm
same,Kirby-Bauer Inhibition Zone,[9]; [13],49 mm
same,Kirby-Bauer Inhibition Zone,[9]; [14],44 mm
same,inhibition (in words),[9]; [15],effective for one week
same,Kirby-Bauer Inhibition Zone,[9]; [16],27 mm
same,Kirby-Bauer Inhibition Zone,[9]; [17],42 mm
same,Kirby-Bauer Inhibition Zone,[9]; [18],33 mm
same,Kirby-Bauer Inhibition Zone,[9]; [19],22 mm
same,Kirby-Bauer Inhibition Zone,"[9]; 10^−4 gr/gram of calcium aluminate, 1 Hour after setting, saline 37° C.",34 mm
same,Kirby-Bauer Inhibition Zone,[9]; [20],23 mm
same,Kirby-Bauer Inhibition Zone,[10]; [12],35 mm
same,Kirby-Bauer Inhibition Zone,[10]; [13],44 mm
same,Kirby-Bauer Inhibition Zone,[10]; [14],39 mm
same,inhibition (in words),[10]; [15],effective for one week
same,Kirby-Bauer Inhibition Zone,[10]; [16],19 mm
same,Kirby-Bauer Inhibition Zone,[10]; [17],34 mm
same,Kirby-Bauer Inhibition Zone,[10]; [18],21 mm
same,Kirby-Bauer Inhibition Zone,[10]; [19],0 mm
same,Kirby-Bauer Inhibition Zone,[10]; [21],21 mm
same,Kirby-Bauer Inhibition Zone,[10]; [20],0 mm
same,Kirby-Bauer Inhibition Zone,[11]; [12],29 mm
same,Kirby-Bauer Inhibition Zone,[11]; [13],34 mm
same,Kirby-Bauer Inhibition Zone,[11]; [14],32 mm
same,inhibition (in words),[11]; [15],effective for one week
same,Kirby-Bauer Inhibition Zone,[11]; [16],5 mm
same,Kirby-Bauer Inhibition Zone,[11]; [17],27 mm
same,Kirby-Bauer Inhibition Zone,[11]; [18],21 mm
same,Kirby-Bauer Inhibition Zone,[11]; [19],0 mm
same,Kirby-Bauer Inhibition Zone,[11]; [21],7 mm
same,Kirby-Bauer Inhibition Zone,[11]; [20],0 mm
CN(C)[C@@H]1C(O)=C(C(N)=O)C(=O)[C@@]2(O)C(O)=C3C(=O)c4c(O)ccc(Cl)c4[C@@H](O)[C@H]3C[C@@H]12 [democlotetracycline],effectiveness of other tetracyclines (in words),[7],effective
